The values below come from patent US20250002487A1, “HETEROCYCLIC COMPOUNDS AND USES THEREOF” (Ventus Therapeutics U.S., Inc., priority 2021, published 2025).

Where only a bound is given, the exact number is not on record here.

The target in the test is human-cGAS (h-cGAS) (Homo sapiens, UniProt Q8N884). Kind of test: hcGAS Kinase-Glo Assay. In kind it is biochemical. The following applies: 40 nM h-cGAS, 100 μM ATP, 100 μM GTP, 25 nM dsDNA, 3 h incubation, read-out: hcGAS potency IC50. The protocol: In some embodiments, the compounds of the instant disclosure may be tested for their human-cGAS (h-cGAS) inhibition activity using the methodology reported in Lama et al., “Development of human cGAS-specific small molecule inhibitors for repression of double stranded DNA (dsDNA)-triggered interferon expression”, Nature Communications 10, Article number: 2261 (2019), incorporated herein by reference. hcGAS Kinase-Glo Assay Compounds were tested for their human-cGAS (h-cGAS) inhibition activity using the methodology reported in Lama et al., “Development of human cGAS-specific small molecule inhibitors for repression of double stranded DNA (dsDNA)-triggered interferon expression”, Nature Communications 10. Article number: 2261 (2019), which is herein incorporated by reference in its entirety, with slight changes to some conditions as shown in Table B. The results of the assays, expressed in IC50 ranges are reported in Table C with the following designations: A represents an IC50 value <0.1 μM; B represents an IC50 value ≥0.1 μM and <0.5 μM; C represents an IC50 value ≥0.5 μM and <1.0 μM; D represents an IC50 value ≥1.0 μM. [table]
human-cGAS (h-cGAS), sequence (Q8N884 whole entry): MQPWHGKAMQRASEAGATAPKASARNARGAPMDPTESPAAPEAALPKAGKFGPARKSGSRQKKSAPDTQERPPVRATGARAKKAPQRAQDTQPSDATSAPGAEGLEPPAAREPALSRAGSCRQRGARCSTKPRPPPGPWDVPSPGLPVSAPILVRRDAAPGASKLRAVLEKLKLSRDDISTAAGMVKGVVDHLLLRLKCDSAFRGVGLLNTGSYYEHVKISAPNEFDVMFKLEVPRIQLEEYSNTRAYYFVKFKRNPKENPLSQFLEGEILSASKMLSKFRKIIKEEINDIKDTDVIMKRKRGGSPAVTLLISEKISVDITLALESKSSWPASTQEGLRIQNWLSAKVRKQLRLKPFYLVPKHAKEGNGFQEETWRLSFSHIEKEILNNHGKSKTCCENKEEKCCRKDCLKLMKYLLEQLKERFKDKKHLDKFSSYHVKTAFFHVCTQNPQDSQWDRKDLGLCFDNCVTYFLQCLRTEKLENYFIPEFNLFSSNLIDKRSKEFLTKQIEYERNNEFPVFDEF
A general note: Kinase-Glo measures the ATP left after a reaction by luminescence.
The term IC50 denotes the concentration that gives 50% inhibition. For `CSc1nnc(NC(=O)c2cc(-c3ccccc3C)no2)s1` [Compound 218, 3-(2-methylphenyl)-N-[5-(methylsulfanyl)-1,3,4-thiadiazol-2-yl]-1,2-oxazole-5-carboxamide], the IC50 lay in the range of 500 to 1000 nM. As for `CSc1nnc(NC(=O)c2cc(O)cc(-c3ccccc3)n2)s1` [Compound 200, 4-hydroxy-N-(5-(methylthio)-1,3,4-thiadiazol-2-yl)-6-phenylpicolinamide], the figure is ≥ 1000 nM; as for `CSc1nnc(NC(=O)c2cc(-c3cccc4c3CCC4)no2)s1` [Compound 68, 3-(2,3-dihydro-1H-inden-4-yl)-N-(5-(methylthio)-1,3,4-thiadiazol-2-yl)isoxazole-5-carboxamide], 500 to 1000 nM; as for `CSc1nnc(NC(=O)c2cc(C3CCCC3)no2)s1` [Compound 85, 3-cyclopentyl-N-(5-(methylthio)-1,3,4-thiadiazol-2-yl)isoxazole-5-carboxamide], 500 to 1000 nM. As for `CSc1nnc(NC(=O)c2cc(-c3ccsc3)no2)s1` [Compound 139, N-[5-(methylsulfanyl)-1,3,4-thiadiazol-2-yl]-3-(thiophen-3-yl)-1,2-oxazole-5-carboxamide], the figure is 500 to 1000 nM. As for `Cc1cc(C(=O)Nc2nnc(-c3ccccc3Cl)s2)on1` [Compound 36, N-(5-(2-chlorophenyl)-1,3,4-thiadiazol-2-yl)-3-methylisoxazole-5-carboxamide], the figure is 100 to 500 nM; as for `CSc1nnc(NC(=O)c2cc(-c3ccc(F)cc3F)no2)s1` [Compound 48, 3-(2,4-difluorophenyl)-N-(5-(methylthio)-1,3,4-thiadiazol-2-yl)isoxazole-5-carboxamide], 500 to 1000 nM; as for `CC(=O)Nc1cc(C(=O)Nc2nnc(-c3ccccc3Cl)s2)on1` [Compound 5, 3-acetamido-N-(5-(2-chlorophenyl)-1,3,4-thiadiazol-2-yl)isoxazole-5-carboxamide], 100 to 500 nM.

In the case of `CSc1nnc(NC(=O)c2onc3c2CCCC3O)s1` (stereo not shown) [Compound 196, 7-Hydroxy-N-(5-(methylthio)-1,3,4-thiadiazol-2-yl)-4,5,6,7-tetrahydrobenzo[c]isoxazole-3-carboxamide], the IC50 was ≥ 1000 nM. Take `COC(=O)c1cc(C(=O)Nc2nnc(SC)s2)on1` [Compound 15, methyl 5-((5-(methylthio)-1,3,4-thiadiazol-2-yl)carbamoyl)isoxazole-3-carboxylate]: the half-inhibitory concentration (IC50) is 500 to 1000 nM. As for `CSc1nnc(NC(=O)c2nc(-c3cccs3)oc2C)s1` [Compound 77, 5-methyl-N-(5-(methylthio)-1,3,4-thiadiazol-2-yl)-2-(thiophen-2-yl)oxazole-4-carboxamide], the figure is ≥ 1000 nM; as for `N#Cc1nnc(NC(=O)c2onc3c2ccc2cccnc23)s1` [Compound 9, N-(5-cyano-1,3,4-thiadiazol-2-yl)isoxazolo[4,3-h]quinoline-3-carboxamide], 100 to 500 nM; as for `CNC(=O)c1ccc2c(C(=O)Nc3nnc(SC)s3)onc2c1` [Compound 193, N6-methyl-N3-(5-(methylthio)-1,3,4-thiadiazol-2-yl)benzo[c]isoxazole-3,6-dicarboxamide], ≥ 1000 nM. Regarding `CSc1nnc(NC(=O)c2nnc(N3CCNC(=O)C3)o2)s1` [Compound 124, N-(5-(methylthio)-1,3,4-thiadiazol-2-yl)-5-(3-oxopiperazin-1-yl)-1,3,4-oxadiazole-2-carboxamide], the IC50 was ≥ 1000 nM. As for `CSc1nnc(NC(=O)c2nnc(-c3ccccn3)o2)s1` [Compound 106, N-(5-(methylthio)-1,3,4-thiadiazol-2-yl)-5-(pyridin-2-yl)-1,3,4-oxadiazole-2-carboxamide], the figure is 500 to 1000 nM; as for `Cc1ccnc(-c2cc(C(=O)Nc3nnc(-c4ccccc4Cl)s3)on2)n1` [Compound 157, N-(5-(2-Chlorophenyl)-1,3,4-thiadiazol-2-yl)-3-(4-methylpyrimidin-2-yl)isoxazole-5-carboxamide], 100 to 500 nM.
